The text below walks through data of patent publication US20260232684A1, “FLT3 INHIBITORS AND METHODS OF USING THE SAME” (BIOVENTURES, LLC, priority 2023, published 2026).

SMILES strings stand for the structures.

For test [1], the system named is Molm-14 F691L cells stably expressing firefly luciferase. Nature of the test: Circulating tumor model, Molm14 F691L luciferase. The format is in vivo. As for the experimental part: FIG. 7. […] Molm14 F691L stably expressing FLuc9 were engrafted in mice through tail vein injection. Mice were imaged once every three days.
Molm-14 F691L cells stably expressing firefly luciferase were injected into the tail vein of NSG mice and tumor growth was monitored through bioluminescence.

The test system of test [2] is Ba/F3 FLT3-ITD F691M line. In words: Cell viability, Ba/F3 FLT3-ITD F691M gatekeeper mutant. The class given is cell-based. The note with it: IC50, 48 hours, CellTiter GLO. The procedure:
(§1) FIG. 3. Molecular docking study of compound 1 and impact of the most common gatekeeper variants in the human kinome on activity toward […]. […] The dim FLT3 active model was built using 1PKG (KIT) as a reference using Prime (Schrodinger®). The complex of active FLT3 bound to 1 was minimized by Embrace (Schrodinger®). […] Cells were treated with inhibitor at increasing log doses (0.1 nM-10 μM) for 48 hours. Cell viability was analyzed through CellTiter GLO.
(§2) To further investigate the possibility of a hydrophobic cage interaction and its contribution to the selectivity of compound 1, we assessed the impact of substitutions of the native phenylalanine at position 691 with the other residues most commonly found at this position in the human kinome (methionine, threonine, isoleucine, or valine). Ba/F3 cells transformed with FLT3-ITD or with FLT3-ITD substitutions at position 691 were assessed for sensitivity to compound 1 (FIG. 3C).
(§3) Exponentially growing cells (1×10^3-1×10^4 cells) were plated in triplicate in a 96-well plate with 0.1 mL of RPMI 1640+10% (vol/vol) FBS. Each triplicate was either dosed with drug or DMSO vehicle control. Drug dosing was completed at log doses ranging from 0.1 nM-10 μM. Cell viability was assessed after 48 hours using CellTiter GLO (Promega). Viability values were normalized to the vehicle control average. Numerical IC50 values were calculated in GraphPad Prism 7. […]

Test [3] has as its system Ba/F3 FLT3-ITD with Thr, Ile, or Val gatekeeper residues. Nature of the test: Cell viability, Ba/F3 FLT3-ITD with Thr, Ile or Val gatekeeper. The note with it: other gatekeeper mutants (Thr, Ile, Val) compared with F691M. The class given is cell-based. The procedure:
as §1, §2, §3

On to `CC(C)(C)c1cc(NC(=O)Cc2ccc(-c3cnc4cc(-c5cnn(CCN6CCOCC6)c5)ccc4n3)cc2)no1` [Compound 2, N-(5-(tert-butyl)isoxazol-3-yl)-2-(4-(6-(1-(2-morpholinoethyl)-1H-pyrazol-4-yl)quinoxalin-2-yl)phenyl) acetamide], for which the “tumor growth compared to gilteritinib” value in test [1] (both doses of compound 2 (5 or 10 mg/kg) vs gilteritinib 33 mg/kg) is “statistically significant difference compared to gilteritinib”. For the same compound, in test [1] (daily oral gavage 14 days, compound 2 5 or 10 mg/kg, gilteritinib 33 mg/kg, vs vehicle control), the “tumor growth (bioluminescence), in words” value is reported as “nearly halt all tumor growth”.

Consider `CN(C)CCNc1ncc(F)c(-c2cnc3cc(-c4cnn(C)c4)ccn23)n1` [Compound 1], for which the “loss of activity relative to the Ba/F3 FLT3-ITD line” value in test [2] is around 100 fold. Moreover, in test [3], the “loss of activity relative to the Ba/F3 FLT3-ITD line, in words” value is on record as “an even greater impact”.
